The record followed here is PMC5608352, “Formyl peptide derived lipopeptides disclose differences between the receptors in mouse and men and call the pepducin concept in question” (PLoS ONE, 2017).

What all share (type): cell-based
For one assay, the system named is FPR1. Briefly: Inhibition of fMLF-induced superoxide release, human neutrophils. The following applies: pepducin 1 μM; fMLF 50 nM. The source says:
Human peripheral blood neutrophils were isolated from buffy coats from healthy blood donors using dextran sedimentation and Ficoll-Paque gradient centrifugation as described. The remaining erythrocytes were disrupted by hypotonic lysis and the neutrophils were washed twice, suspended in KRG and, stored on melting ice until use. This isolation process permits cells to be purified with minimal granule mobilization. The buffy coats were obtained from the blood bank at Sahlgrenska University Hospital. Ethics approval was not needed since the buffy coats were provided anonymously and could not be traced back to a specific individual. This is in line with Swedish legislation section code 4§ 3p SFS 2003:460 (Lag om etikprövning av forskning som avser människor).
NADPH-oxidase activity was determined using an isoluminol and HRP-enhanced chemiluminescence (CL) system that allow for the determination of superoxide production. The CL activity was measured in a six-channel Biolumat LB 9505 apparatus (Berthold Co., Wildbad, Germany), using disposable 4-mL polypropylene tubes with 1 mL reaction mixture. […] The light emission was recorded continuously over time and presented as superoxide production (in arbitrary light units, cpm x10^-6) as a function of time (min). The activity before stimulus addition was recorded as basal line and this activity was not changed in vehicle control samples. […]

For assay [1], the target named is T1, Fpr2 (Mus musculus, UniProt O88536).
T1 construct: WT mouse neutrophils (5 x 10^4 cells) were pre-incubated without (solid line) or with mF2Pal16; endogenous in cells; host or cells: bone marrow neutrophils of C57BL/6 wild-type mice, TNF-alpha primed
T1 sequence (O88536 1-351): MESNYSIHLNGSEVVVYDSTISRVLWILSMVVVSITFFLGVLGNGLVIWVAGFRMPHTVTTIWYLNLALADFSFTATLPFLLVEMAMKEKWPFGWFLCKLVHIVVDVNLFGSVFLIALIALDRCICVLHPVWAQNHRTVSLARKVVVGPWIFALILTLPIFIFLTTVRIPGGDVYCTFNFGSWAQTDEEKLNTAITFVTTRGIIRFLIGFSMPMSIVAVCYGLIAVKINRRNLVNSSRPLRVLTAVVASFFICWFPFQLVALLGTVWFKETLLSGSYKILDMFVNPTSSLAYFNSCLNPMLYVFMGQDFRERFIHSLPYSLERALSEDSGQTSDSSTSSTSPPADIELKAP
Briefly: Receptor preference in mouse neutrophils (Fpr2 versus Fpr1). Particulars: conclusion from superoxide release, Fpr2^-/- cells, desensitization and inhibitors. The source says:
C57BL/6 wild-type mice were purchased from Charles River Laboratories and Fpr2^−/− mice generated as described previously, were generously provided by Dr Ji Ming Wang, Frederick National Laboratory for Cancer Research, USA. Mice were kept under standard temperature and light conditions and fed laboratory chow and water ad libitum, at the Department of Rheumatology and Inflammation Research, University of Gothenburg. Sex matched WT and Fpr2^-/- animals (age 8–10 weeks) were used to isolated bone marrow derived neutrophils. The studies performed were approved by the Ethical Committee for Animal Experimentation, Göteborg, Sweden.
Mice (8–12 weeks of age) were killed by cervical dislocation, the femurs and tibias were removed and freed of soft tissue attachments, and the extreme distal tip of each extremity was cut off. […] The cell number and population of bone marrow cells were determined by flow cytometry based on forward scatter (size) and side scatter (density) localization.
NADPH-oxidase activity was determined using an isoluminol and HRP-enhanced chemiluminescence (CL) system that allow for the determination of superoxide production. The CL activity was measured in a six-channel Biolumat LB 9505 apparatus (Berthold Co., Wildbad, Germany), using disposable 4-mL polypropylene tubes with 1 mL reaction mixture. […]

Assay [2] addresses T1, Fpr2. Briefly: Inhibition of F1Pal16-induced superoxide release, WT mouse neutrophils. Particulars: mF2Pal16 250 nM, 5 min pre-incubation, F1Pal16 500 nM, one of three experiments. From the text: Mice (8–12 weeks of age) were killed by cervical dislocation, the femurs and tibias were removed and freed of soft tissue attachments, and the extreme distal tip of each extremity was cut off. KRG without Ca^2+ and Mg^2+ (KRG-) was forced through the bone by using a 1-mL syringe with a 27-gauge needle. After dispersing cell clumps and removing the debris, the bone marrow granulocytes were isolated according to an earlier described procedure with some modifications. Briefly, a cell suspension in 2 mL of KRG- was laid on top of a three-layer Percoll gradient (1.095, 1.085, and 1.070 g/mL). The density of each Percoll solution was verified using density marker beads. […] The cell number and population of bone marrow cells were determined by flow cytometry based on forward scatter (size) and side scatter (density) localization.
NADPH-oxidase activity was determined using an isoluminol and HRP-enhanced chemiluminescence (CL) system that allow for the determination of superoxide production. The CL activity was measured in a six-channel Biolumat LB 9505 apparatus (Berthold Co., Wildbad, Germany), using disposable 4-mL polypropylene tubes with 1 mL reaction mixture. […] The light emission was recorded continuously over time and presented as superoxide production (in arbitrary light units, cpm x10^-6) as a function of time (min). […]

Molecules are shown by their SMILES. “Also recorded” adds a separate entry of the source. Residues, ends and D or L forms follow the SMILES beside them. *: point of attachment. Palmitoyl = CCCCCCCCCCCCCCCC(=O)*

For `CCCCCCCCCCCCCCCC(=O)N[C@@H](CCCCN)C(=O)N[C@H](C(=O)N[C@@H](CC(N)=O)C(=O)N[C@@H](CCCNC(=N)N)C(=O)N[C@@H](CCCNC(=N)N)C(=O)N[C@@H](CC(N)=O)C(=O)N[C@@H](CC(C)C)C(=O)N[C@H](C(=O)N[C@@H](CC(N)=O)C(=O)N[C@@H](CO)C(=O)N[C@@H](CO)C(=O)N[C@@H](CCCNC(=N)N)C(=O)N1CCC[C@H]1C(=O)N[C@@H](CC(C)C)C(=O)N[C@@H](CCCNC(=N)N)C(=O)N[C@H](C(=O)O)C(C)C)C(C)C)[C@@H](C)CC` [mF2Pal16] (Palmitoyl-KINRRNLVNSSRPLRV-OH; C-terminus assumed), in the assay on FPR1, the “effect on fMLF response, human neutrophils” value was “lack of inhibitory effect”. On Fpr2 [1], the “receptor preference / modulation of Fpr2 (versus Fpr1) in mouse neutrophils” value was “inhibits the activity of Fpr2 in mouse neutrophils; also recorded: potent and selective inhibitor for Fpr2/FPR2; also recorded: targets this receptor”. Besides, the entries for the “effect of mF2Pal16 on F1Pal16 response, WT mouse neutrophils” value on Fpr2 [2] and at Fpr2 [2] (listed as mF2pal16) were “inhibits the activity of F1Pal16 in mouse neutrophils” and “the response was sensitive to the pepducin inhibitor mF2pal16”, respectively.
